Test results published in PMC12163485 (Drug Metabolism and Disposition, 2025).
“And” between values parts separate entries of the source, which are not always exact repeats. Equal values may be shown once. Read-outs that look alike come from different tables or passages of the source.

Tests used:
mouse OCT1 = molecular target: T1, mouse OCT1 (Mus musculus, UniProt O08966); assay: Uptake of the cocktail by HEK293 cells overexpressing mouse Oct1
T1 sequence (O08966 1-556): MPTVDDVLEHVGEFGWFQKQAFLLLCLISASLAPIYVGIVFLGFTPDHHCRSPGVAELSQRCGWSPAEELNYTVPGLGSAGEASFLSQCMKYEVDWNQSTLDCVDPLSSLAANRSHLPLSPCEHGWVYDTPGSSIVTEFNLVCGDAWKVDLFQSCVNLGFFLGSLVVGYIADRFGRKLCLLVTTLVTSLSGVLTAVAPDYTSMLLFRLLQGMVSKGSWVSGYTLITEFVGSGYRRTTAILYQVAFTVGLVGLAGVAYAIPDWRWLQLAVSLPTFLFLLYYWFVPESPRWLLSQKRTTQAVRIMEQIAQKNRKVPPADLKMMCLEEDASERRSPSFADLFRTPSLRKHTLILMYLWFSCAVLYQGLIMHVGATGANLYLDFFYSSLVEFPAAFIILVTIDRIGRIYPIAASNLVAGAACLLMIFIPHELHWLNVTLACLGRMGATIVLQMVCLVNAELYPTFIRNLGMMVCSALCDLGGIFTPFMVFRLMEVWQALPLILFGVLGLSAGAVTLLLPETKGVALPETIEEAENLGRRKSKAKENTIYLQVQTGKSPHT
Procedure: (§1) Significance was calculated using Mann–Whitney U test. n = 5–8 independent experiments.

[1] = Pharmacokinetic parameters used for estimating the potential for DDIs; type: in vivo, human; conditions: human; for k el: po
Procedure: Ka was calculated manually based on available pharmacokinetic parameters.

human MATE1 (hMATE1) = molecular target: T2, human MATE1 (hMATE1) (Homo sapiens, UniProt Q96FL8); assay: Uptake of the extended cocktail by HEK293 cells overexpressing hMATE1; type: in vitro ADME; conditions: Fig. 6, uptake 1 minute after NH4Cl preincubation
T2 sequence (Q96FL8 1-570): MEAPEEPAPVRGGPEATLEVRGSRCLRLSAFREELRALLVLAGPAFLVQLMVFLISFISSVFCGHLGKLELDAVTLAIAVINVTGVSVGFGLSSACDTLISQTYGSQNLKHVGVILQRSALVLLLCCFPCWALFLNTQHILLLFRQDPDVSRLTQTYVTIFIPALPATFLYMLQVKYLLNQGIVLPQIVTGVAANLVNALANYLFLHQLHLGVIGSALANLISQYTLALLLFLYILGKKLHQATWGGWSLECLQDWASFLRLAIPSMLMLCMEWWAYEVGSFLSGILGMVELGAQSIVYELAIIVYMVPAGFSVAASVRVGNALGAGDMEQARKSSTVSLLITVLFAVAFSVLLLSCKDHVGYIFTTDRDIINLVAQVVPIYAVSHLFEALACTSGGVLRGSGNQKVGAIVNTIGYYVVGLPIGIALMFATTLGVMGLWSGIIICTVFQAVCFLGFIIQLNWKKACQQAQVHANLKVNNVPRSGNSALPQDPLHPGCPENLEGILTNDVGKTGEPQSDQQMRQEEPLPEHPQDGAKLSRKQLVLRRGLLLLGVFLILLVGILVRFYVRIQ

human MATE2K (hMATE2K) = human MATE2K (hMATE2K) (Homo sapiens, UniProt Q86VL8); assay: Uptake of the extended cocktail by HEK293 cells overexpressing hMATE2K; type: in vitro ADME; conditions: Fig. 6, uptake 1 minute after NH4Cl preincubation
OCT1 [2] = molecular target: T3, OCT1 (Homo sapiens, UniProt O15245)
T3 sequence (O15245 1-554): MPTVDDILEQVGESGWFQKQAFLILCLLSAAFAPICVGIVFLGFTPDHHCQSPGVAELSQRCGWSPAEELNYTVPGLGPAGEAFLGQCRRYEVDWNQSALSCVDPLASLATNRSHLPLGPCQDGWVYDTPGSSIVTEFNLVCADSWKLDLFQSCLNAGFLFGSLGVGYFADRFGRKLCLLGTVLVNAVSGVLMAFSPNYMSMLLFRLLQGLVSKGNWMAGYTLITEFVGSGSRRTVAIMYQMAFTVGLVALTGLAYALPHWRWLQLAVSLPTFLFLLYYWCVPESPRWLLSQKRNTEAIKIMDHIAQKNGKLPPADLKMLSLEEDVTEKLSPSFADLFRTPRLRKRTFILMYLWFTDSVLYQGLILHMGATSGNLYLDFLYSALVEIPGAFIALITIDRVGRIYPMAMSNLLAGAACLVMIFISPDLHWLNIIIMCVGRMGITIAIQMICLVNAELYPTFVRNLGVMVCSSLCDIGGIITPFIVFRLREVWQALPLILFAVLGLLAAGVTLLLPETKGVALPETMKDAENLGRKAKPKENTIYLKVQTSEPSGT
Procedure: (§2) Ka was calculated manually based on available pharmacokinetic parameters. Qh was set to 97 L/h and Fa was assumed as 1.

mOct1 = tested on: mOct1; design: method as in ref column References of Table 2 (Morse et al, 2020; Jensen et al, 2020; Meyer et al, 2022); conditions: literature values; References of Table 2 (Morse et al, 2020; Jensen et al, 2020; Meyer et al, 2022); cited from earlier work
[3] = cited from earlier work; for cmax = Imax: dose and route as in Supplemental Table 4, ref Hardman, 2018, fenoterol Tzvetkov et al; for cmax = Imax / fraction unbound: ipratropium Zhang et al, 2023; for fraction unbound: fraction unbound in plasma, ref Hardman, 2018, Lombardo et al (2018), fenoterol Tzvetkov et al; for tmax: p.o., ref Hardman, 2018
OCT1 [4] = molecular target: T3, OCT1; assay: DDI risk R calculated from IC50 at human OCT1; conditions: R=1+fup×Iin,max/IC50, cutoff R ≥ 1.1
Procedure: as §2

human OCT1 (hOCT1) [5] = molecular target: T4, human OCT1 (hOCT1) (Homo sapiens, UniProt O15245); assay: Transport kinetics (KM, vmax) of OCT1-mediated uptake, HEK293 cells overexpressing human OCT1; type: in vitro ADME; design: expressed in transfected cells; empty vector control pcDNA5; conditions: mean ± SD; for vmax: hOCT1; for Km at 2 min: human, HEK293 cells stably overexpressing human OCT1, pH 7.4, hOCT1
T4 sequence (O15245 1-554): T3 sequence (O15245 1-554)
Procedure: To validate the cocktail, we analyzed whether the combination of all substrates in a cocktail affected their individual transport kinetics in terms of KM and vmax. […] To measure the transport kinetics for a single substrate in the cocktail, we increased the concentration of 1 substrate while keeping the concentrations of the other substrates in the cocktail constant. The resulting KM and vmax values were compared with those obtained when each substrate was tested alone (Fig. 2; Supplemental Table 5).

human OCT1 (hOCT1) [6] = molecular target: T4, human OCT1 (hOCT1); design: expressed in transfected cells; empty vector control pcDNA5; method as in ref column References of Table 2 (Tzvetkov et al, 2018; Morse et al, 2020; Jensen et al, 2020; Meyer et al, 2019, 2022; Wittern et al, 2024 and own unpublished data; Elsby et al, 2017); conditions: literature values; References of Table 2 (Tzvetkov et al, 2018; Morse et al, 2020; Jensen et al, 2020; Meyer et al, 2019, 2022; Wittern et al, 2024 and own unpublished data; Elsby et al, 2017); cited from earlier work
OCT1 [7] = molecular target: T3, OCT1; assay: Uptake of the cocktail by HEK293 cells overexpressing human OCT1; conditions: cocktail
Procedure: as §1

human OCT1 (hOCT1) [8] = molecular target: T4, human OCT1 (hOCT1)
Procedure: (§3) The kinetic transport parameters KM and vmax as well as the half-maximal inhibitory concentration (IC50) were calculated using GraphPad Prism version 8.0.2 (GraphPad Software, Inc). KM and vmax were calculated using nonlinear regression to the Michaelis-Menten equation.

OCT1 [9] = conditions: ref Tzvetkov et al, 2018 (fenoterol); Matthaei et al, 2016 (sumatriptan); cited from earlier work
human OCT1 (hOCT1) [10] = molecular target: T4, human OCT1 (hOCT1); assay: Inhibition of OCT1-mediated uptake of the cocktail substrates in HEK293 cells overexpressing human OCT1; conditions: human OCT1, mean ± SD
Procedure: as §3

[11] = fold change to the negative control, n = 12

human MATE2K (hMATE2K), sequence (Q86VL8 1-566 isoform Q86VL8-3): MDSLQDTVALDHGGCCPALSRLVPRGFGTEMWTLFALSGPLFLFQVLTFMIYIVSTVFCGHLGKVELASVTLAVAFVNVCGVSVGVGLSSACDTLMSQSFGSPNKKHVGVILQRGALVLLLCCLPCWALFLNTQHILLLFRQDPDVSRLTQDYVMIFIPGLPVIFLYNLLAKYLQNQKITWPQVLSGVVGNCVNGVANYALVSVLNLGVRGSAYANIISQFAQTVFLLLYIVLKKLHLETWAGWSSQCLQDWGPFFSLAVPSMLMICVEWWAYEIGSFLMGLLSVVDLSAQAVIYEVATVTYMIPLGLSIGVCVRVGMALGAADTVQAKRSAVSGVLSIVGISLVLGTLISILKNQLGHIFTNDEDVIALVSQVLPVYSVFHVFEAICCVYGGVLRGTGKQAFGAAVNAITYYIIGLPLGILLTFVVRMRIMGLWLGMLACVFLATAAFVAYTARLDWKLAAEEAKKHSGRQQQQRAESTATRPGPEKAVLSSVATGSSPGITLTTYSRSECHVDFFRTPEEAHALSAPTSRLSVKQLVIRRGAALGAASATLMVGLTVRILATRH

CN(C)C(=N)N=C(N)N [Metformin, metformin]
uptake stronger in mouse than in human OCT1 (mouse OCT1; ratio mouse/human): 5.1 fold
I max, portal, u ([1]; in vivo): 39.48 µM
Imax, portal ([1]; in vivo): 5100 ng/mL
k el ([1]; in vivo): 0.000111 s⁻¹
transport by MATE1 (human MATE1 (hMATE1)): by far the strongest transport activity
transport by MATE2K (human MATE2K (hMATE2K)): by far the strongest transport activity
DDI risk R, victim drug trospium (OCT1 [2]): 1.00
Km (mOct1): 491 µM
cmax = Imax [3]: 1600 ng/mL
fraction unbound [3]: 1
tmax [3]: 1.90 h
DDI risk R, victim drug fenoterol (OCT1 [4]): 1.00
DDI risk R, victim drug ipratropium (OCT1 [4]): 1.01
DDI risk R, victim drug methylnaltrexone (OCT1 [4]): 1.01
DDI risk R, victim drug salbutamol (OCT1 [4]): 1.00
DDI risk R, victim drug sumatriptan (OCT1 [4]): 1.01
DDI risk R, victim drug zolmitriptan (OCT1 [4]): 1.00
vmax (human OCT1 (hOCT1) [5]; substrate tested alone): 6999 ± 2065 pmol x min^-1 x mg protein^-1
vmax (human OCT1 (hOCT1) [5]; substrate tested in cocktail): 5251 ± 1311 pmol x min^-1 x mg protein^-1
Km at 2 min (human OCT1 (hOCT1) [5]; substrate tested alone): 1380 ± 512 µM
Km at 2 min (human OCT1 (hOCT1) [5]; substrate tested in cocktail): 2000 ± 338 µM
Km (human OCT1 (hOCT1) [6]): 3030 µM

CNS(=O)(=O)Cc1ccc2[nH]cc(CCN(C)C)c2c1 [Sumatriptan, sumatriptan]
human OCT1 uptake [fold change to pcDNA5] (OCT1 [7]; [11]): 15.3 fold change to pcDNA5
uptake stronger in human than in mouse OCT1 (OCT1 [7]; ratio human/mouse): 2 fold
mouse Oct1 uptake [fold change to pcDNA5] (mouse OCT1; [11]): 7.8 fold change to pcDNA5
I max, portal, u ([1]; in vivo): 1.91 µM
Imax, portal ([1]; in vivo): 714.8 ng/mL
ka ([1]; in vivo): 0.64 h⁻¹
k el ([1]; plasma, read-out: ke (converted)): 0.000192 s⁻¹
transport by MATE1 (human MATE1 (hMATE1)): by far the strongest transport activity
IC50 (human OCT1 (hOCT1) [8]): 604 µM and 628 µM
transport by MATE2K (human MATE2K (hMATE2K)): by far the strongest transport activity
DDI risk R, victim drug trospium (OCT1 [2]): 1.01
Km (mOct1): 65.7 µM
increase in systemic exposure in individuals homozygous for OCT1 loss-of-function genetic variants (OCT1 [9]): 2 fold
cmax = Imax [3]: 54 ng/mL
fraction unbound [3]: 0.79
tmax [3]: 1.50 h
t1/2 ([3]; ref Hardman, 2018, fenoterol Tzvetkov et al): 1.00 h
DDI risk R, victim drug fenoterol (OCT1 [4]): 1.00
DDI risk R, victim drug ipratropium (OCT1 [4]): 1.01
DDI risk R, victim drug metformin (OCT1 [4]): 1.00
DDI risk R, victim drug methylnaltrexone (OCT1 [4]): 1.00
DDI risk R, victim drug salbutamol (OCT1 [4]): 1.00
DDI risk R, victim drug zolmitriptan (OCT1 [4]): 1.00
Km (human OCT1 (hOCT1) [6]): 55.8 µM
IC50 (human OCT1 (hOCT1) [10]; IC50 for inhibition of fenoterol uptake, substrate (victim) fenoterol 0.5 μM in cocktail): 482 ± 42.9 µM
IC50 (human OCT1 (hOCT1) [10]; IC50 for inhibition of ipratropium uptake, substrate (victim) ipratropium 0.5 μM in cocktail): 207 µM
IC50 (human OCT1 (hOCT1) [10]; IC50 for inhibition of methylnaltrexone uptake, substrate (victim) methylnaltrexone 1 μM in cocktail): 448 ± 40.9 µM
IC50 (human OCT1 (hOCT1) [10]; IC50 for inhibition of trospium uptake, substrate (victim) trospium 0.1 μM in cocktail): 270 ± 42.6 µM
IC50 (human OCT1 (hOCT1) [10]; IC50 for inhibition of zolmitriptan uptake, substrate (victim) zolmitriptan 0.5 μM in cocktail): 506 ± 36.2 µM
